US9417239B2, “Assay to determine LRRK2 activity in parkinson's disease” (PARKINSON'S INSTITUTE, priority 2011, dated 2016)

Key:
LRRK2 [1] = molecular target: T1, LRRK2 (Homo sapiens, UniProt Q5S007); assay: Immunoblot of LRRK2 phosphosites after GFP immunoprecipitation from HEK293 T-REx cells expressing GFP-LRRK2 variants; format: cell-based; conditions: T-REx cells expressing active LRRK2; 1 μM LRRK2-IN1 for 90 minutes
Method: (§1) Protein concentrations were determined using the Bradford method with BSA as the standard.

LRRK2 [2] = molecular target: T2, LRRK2 (Homo sapiens, UniProt Q5S007, D2017A); assay: as above; format: cell-based; conditions: kinase inactive LRRK2 mutants; after LRRK2-IN1 treatment
T2 construct: expressed in transfected cells; host or cells: HEK293 Flp-in T-REx, doxycycline-induced
T2 sequence (Q5S007 whole entry D2017A): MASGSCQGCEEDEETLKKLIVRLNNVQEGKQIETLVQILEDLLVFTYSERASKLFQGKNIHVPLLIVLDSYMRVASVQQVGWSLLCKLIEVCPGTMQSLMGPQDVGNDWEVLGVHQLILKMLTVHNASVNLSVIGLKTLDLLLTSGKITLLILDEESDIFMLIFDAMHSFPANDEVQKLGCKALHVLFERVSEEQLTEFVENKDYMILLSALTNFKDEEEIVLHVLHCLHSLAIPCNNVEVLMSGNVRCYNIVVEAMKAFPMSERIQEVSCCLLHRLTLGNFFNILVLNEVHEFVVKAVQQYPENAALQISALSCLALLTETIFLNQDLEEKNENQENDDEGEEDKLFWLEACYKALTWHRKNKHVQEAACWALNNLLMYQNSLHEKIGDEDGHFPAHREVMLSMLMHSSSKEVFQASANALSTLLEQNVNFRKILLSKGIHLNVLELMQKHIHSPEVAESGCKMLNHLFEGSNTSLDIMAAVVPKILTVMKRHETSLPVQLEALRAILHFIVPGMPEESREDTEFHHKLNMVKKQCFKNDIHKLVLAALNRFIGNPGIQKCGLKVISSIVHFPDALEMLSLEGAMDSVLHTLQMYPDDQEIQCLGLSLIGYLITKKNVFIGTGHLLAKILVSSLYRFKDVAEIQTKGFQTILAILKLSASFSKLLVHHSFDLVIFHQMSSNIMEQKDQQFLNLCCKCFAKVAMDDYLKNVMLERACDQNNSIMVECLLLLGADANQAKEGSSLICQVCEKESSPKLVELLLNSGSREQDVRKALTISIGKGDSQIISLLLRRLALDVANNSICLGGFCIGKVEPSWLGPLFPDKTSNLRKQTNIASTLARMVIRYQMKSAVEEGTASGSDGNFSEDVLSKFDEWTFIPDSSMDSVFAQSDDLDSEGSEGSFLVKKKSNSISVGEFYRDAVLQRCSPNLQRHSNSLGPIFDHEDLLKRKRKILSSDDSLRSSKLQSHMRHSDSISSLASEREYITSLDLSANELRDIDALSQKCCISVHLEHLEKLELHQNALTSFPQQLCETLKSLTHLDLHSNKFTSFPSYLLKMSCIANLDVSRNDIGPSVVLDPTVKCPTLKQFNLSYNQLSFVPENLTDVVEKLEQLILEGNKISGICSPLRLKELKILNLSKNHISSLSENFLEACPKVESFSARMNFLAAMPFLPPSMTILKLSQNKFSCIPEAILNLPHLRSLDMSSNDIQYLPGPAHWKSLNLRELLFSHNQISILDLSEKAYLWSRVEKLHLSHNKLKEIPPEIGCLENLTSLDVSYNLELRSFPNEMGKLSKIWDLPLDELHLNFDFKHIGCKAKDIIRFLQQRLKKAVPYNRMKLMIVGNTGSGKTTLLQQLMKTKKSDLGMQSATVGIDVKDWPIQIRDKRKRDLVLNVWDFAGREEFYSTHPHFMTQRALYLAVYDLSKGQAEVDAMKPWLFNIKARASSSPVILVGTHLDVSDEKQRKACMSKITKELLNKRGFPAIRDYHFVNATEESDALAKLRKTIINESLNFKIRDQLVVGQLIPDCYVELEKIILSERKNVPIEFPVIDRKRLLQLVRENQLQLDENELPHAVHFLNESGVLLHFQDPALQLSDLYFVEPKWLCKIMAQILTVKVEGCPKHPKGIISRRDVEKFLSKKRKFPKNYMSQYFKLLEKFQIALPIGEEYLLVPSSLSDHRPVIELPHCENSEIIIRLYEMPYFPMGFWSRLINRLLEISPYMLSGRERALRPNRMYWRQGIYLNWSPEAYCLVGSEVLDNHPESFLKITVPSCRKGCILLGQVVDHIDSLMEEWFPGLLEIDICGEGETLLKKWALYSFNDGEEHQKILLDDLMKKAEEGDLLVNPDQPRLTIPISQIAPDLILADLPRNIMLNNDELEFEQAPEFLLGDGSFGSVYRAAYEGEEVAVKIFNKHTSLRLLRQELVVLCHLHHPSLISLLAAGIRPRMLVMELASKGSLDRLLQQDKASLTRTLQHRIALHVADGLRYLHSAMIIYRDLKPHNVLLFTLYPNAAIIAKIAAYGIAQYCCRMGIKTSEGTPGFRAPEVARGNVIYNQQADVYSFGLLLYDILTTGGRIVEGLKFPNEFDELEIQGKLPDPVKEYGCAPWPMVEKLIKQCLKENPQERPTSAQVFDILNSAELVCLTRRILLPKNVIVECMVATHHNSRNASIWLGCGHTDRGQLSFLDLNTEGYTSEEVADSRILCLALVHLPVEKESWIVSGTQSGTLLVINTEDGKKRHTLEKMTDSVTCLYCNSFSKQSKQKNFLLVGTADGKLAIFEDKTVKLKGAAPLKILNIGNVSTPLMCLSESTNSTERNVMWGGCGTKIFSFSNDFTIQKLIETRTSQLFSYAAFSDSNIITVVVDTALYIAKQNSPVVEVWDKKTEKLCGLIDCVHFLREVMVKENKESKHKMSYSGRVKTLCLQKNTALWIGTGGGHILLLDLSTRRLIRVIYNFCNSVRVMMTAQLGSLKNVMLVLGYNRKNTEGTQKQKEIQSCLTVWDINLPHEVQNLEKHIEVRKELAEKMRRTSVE
Method: as §1

14-3-3 binding to LRRK2 = 14-3-3 binding to LRRK2 (Homo sapiens, UniProt Q5S007); assay: 14-3-3 overlay (far-western) assay of immunoprecipitated GFP-LRRK2; format: cell-based; conditions: 1 μM LRRK2-IN1 for 90 minutes
Chain of 14-3-3 binding to LRRK2 (Q5S007 whole entry): as the sequence (Q5S007 whole entry D2017A) above, with A2017D counted along it
Method: The indicated variants of full-length GFP-tagged LRRK2 were expressed from a stable and inducible locus in HEK293 T-REx cells and subjected to immunoprecipitation analysis. Immunoprecipitates were subjected to immunoblot analysis with anti-GFP, and anti-phospho-Ser910 (αpS910), anti-phospho-Ser935 (αpS935), anti-phospho-Ser955 (αpS955), and anti-phospho-Ser973 (αpS973) antibodies. 14-3-3 binding to the LRRK2 variants was assessed by 14-3-3 far-western blot analyses. All blots were co-probed with phospho antibody and GFP (total protein) monoclonal antibody and analyzed by Odyssey® LI-COR analysis; a representative total GFP blot is shown.
The Nanotrap GFP-Trap_A matrix was from ChromoTek (GTA-20). […] LiCOR Dyelight labelled 14-3-3 protein (recombinant, His tagged BMH1, a kind gift of Dr. Dario Alessi) was prepared as per the manufacturer's instructions and used to detect 14-3-3 binding. […] Fluorescent secondary antibodies were from Li-COR (Lincoln Nebr.) or Rockland immunochemicals (Rockland Ill.) LRRK2 Immunoprecipitation assays. Cell lysates were prepared in Lysis buffer (1.0 ml per 15 cm dish) and subjected to immunoprecipitation with GFP-trapA beads at 10 ul beads per 1.0 ml lysate for 1 hr. […]

GFP-LRRK2 = assay: Fluorescence microscopy of GFP-LRRK2 localization in HEK-293 Flp-in T-REx cells; format: cell-based, human; conditions: wild-type GFP-LRRK2; 1 μM LRRK2-IN1 for 90 minutes
Method: T-REx cells lines harboring the indicated LRRK2 variants were induced for 24 h with 1 μg/ml doxycycline to induce expression of GFP-LRRK2. After induction, cells were exposed to vehicle control (DMSO) or 1 μM LRRK2-IN1 for 90 minutes, then fixed with paraformaldehyde and GFP fluorescence was imaged. Representative fluorescent micrographs of cultures for the indicated phosphosite mutants in the presence and absence of inhibitor are shown, localization analysis was performed at least three times. White scale bar represents 10 microns.
HEK-293 Flp-in T-REx cells harbouring GFP tagged LRRK2 and PD associated mutations were plated in 4-well glass bottom, CC2 coated chamber slides (Nunc). One day after plating, cells were induced with 1 μg/ml doxycycline and 24 hr later, cells were fixed in 4% paraformaldehyde buffered in phosphate buffered saline (purchased from Electron Microscopy Sciences, #15710). Cells were imaged under on a Nikon TiE microscope with a 60× objective.

LRRK2 [3] = molecular target: T1, LRRK2; assay: Immunoprecipitation of FLAG-tagged wild-type LRRK2 from treated HEK 293 cells, in vitro autophosphorylation kinase assay, phosphosite immunoblot; format: cell-based; conditions: transient expression, 1 μM LRRK2-IN1 for 90 minutes
From the text: Immunoprecipitates were extensively washed then subjected to in vitro kinase assay in the presence or absence of ATP,in the presence or absence of LRRK2-1N1. Reaction products were immunoblotted with antiphospho-Ser1491 (αpThr1491), anti-phospho-Ser910 (αpS910), anti-phospho-Ser935 (αpS935), anti-phospho-Ser955 (αpS955), and anti-phospho-Ser973 (αpS973) antibodies.
Immunoprecipitation Kinase Assay conditions. Wild-type LRRK2 was transiently expressed in HEK293 cells using polyethylenimine for approximately 36 hours, then cells were treated with DMSO or 1 μM LRRK2-IN1 for 90 minutes. Lysates were then subjected to immunoprecipitation with anti-FLAG M2 agarose at a ratio of 1 μl beads per 100 μg of lysate for 2 hours.

LRRK2 [4] = assay: Western blot of LRRK2 phosphorylation sites, FLAG tagged LRRK2 in HEK293 T-Rex cells (FIG. 4); format: cell-based, human; conditions: kinase dead and inhibitor resistant mutant samples
From the text: Full length, FLAG tagged, wild-type or mutant LRRK2 (as indicated in FIG. 4) was expressed from a stable/inducible locus of HEK293 T-Rex cells (Invitrogen).

LRRK2 [5] = molecular target: T2, LRRK2; conditions: cited from earlier work

T1 sequence (Q5S007 whole entry): as the sequence (Q5S007 whole entry D2017A) above, with A2017D counted along it

phosphorylation of Serines 910/935 (LRRK2 [1])	phosphorylation of Serines 955 and 973 (LRRK2 [1])	phosphorylation of Serines 910 and 935 or 955 and 973 in kinase inactive mutants (LRRK2 [2])	direct 14-3-3 association with LRRK2 (14-3-3 binding to LRRK2)	SMILES	localization of GFP tagged LRRK2 (GFP-LRRK2)	phosphorylation of Ser910, Ser935, Ser955 and Ser973 of FLAG tagged wild-type LRRK2 (LRRK2 [3])	specificity of the inhibitor effects on phosphorylation of serines 955 and 973 (LRRK2 [4])	basal level of LRRK2 phosphorylation at 910/935 in kinase inactive mutants (LRRK2 [5])
complete dephosphorylation	dephosphorylation	no change was observed	reduced direct 14-3-3 association	COc1cc(C(=O)N2CCC(N3CCN(C)CC3)CC2)ccc1Nc1ncc2c(n1)N(C)c1ccccc1C(=O)N2C [LRRK2-IN1]	re-localization of the GFP tagged enzyme to intracellular puncta, large accumulations and microtubule like structures	dephosphorylated at the corresponding residues	specific to LRRK2	
				Cc1cncc2cccc(S(=O)(=O)N3CCCNC[C@@H]3C)c12 [H-1152]				did not perturb
